In article PMC6934184, “Selective DNA-PKcs inhibition extends the therapeutic index of localized radiotherapy and chemotherapy” (The Journal of Clinical Investigation, 2019):

Biological target: T1, ERBB2 (HER2) (Homo sapiens, UniProt P04626)
T1 construct: purchased Thermo Fisher Scientific (Life Technologies) SelectScreen
Assay: SelectScreen Z'LYTE
Assay type: biochemical
In short: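 Percent values come from Thermo SelectScreen profiling of NU5455, combining activity and binding assays. CSF1R was run in Z'LYTE format at Km app ATP, and CAMK1 in Adapta format with ATP listed at 10.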

T1 sequence (P04626 23-1255): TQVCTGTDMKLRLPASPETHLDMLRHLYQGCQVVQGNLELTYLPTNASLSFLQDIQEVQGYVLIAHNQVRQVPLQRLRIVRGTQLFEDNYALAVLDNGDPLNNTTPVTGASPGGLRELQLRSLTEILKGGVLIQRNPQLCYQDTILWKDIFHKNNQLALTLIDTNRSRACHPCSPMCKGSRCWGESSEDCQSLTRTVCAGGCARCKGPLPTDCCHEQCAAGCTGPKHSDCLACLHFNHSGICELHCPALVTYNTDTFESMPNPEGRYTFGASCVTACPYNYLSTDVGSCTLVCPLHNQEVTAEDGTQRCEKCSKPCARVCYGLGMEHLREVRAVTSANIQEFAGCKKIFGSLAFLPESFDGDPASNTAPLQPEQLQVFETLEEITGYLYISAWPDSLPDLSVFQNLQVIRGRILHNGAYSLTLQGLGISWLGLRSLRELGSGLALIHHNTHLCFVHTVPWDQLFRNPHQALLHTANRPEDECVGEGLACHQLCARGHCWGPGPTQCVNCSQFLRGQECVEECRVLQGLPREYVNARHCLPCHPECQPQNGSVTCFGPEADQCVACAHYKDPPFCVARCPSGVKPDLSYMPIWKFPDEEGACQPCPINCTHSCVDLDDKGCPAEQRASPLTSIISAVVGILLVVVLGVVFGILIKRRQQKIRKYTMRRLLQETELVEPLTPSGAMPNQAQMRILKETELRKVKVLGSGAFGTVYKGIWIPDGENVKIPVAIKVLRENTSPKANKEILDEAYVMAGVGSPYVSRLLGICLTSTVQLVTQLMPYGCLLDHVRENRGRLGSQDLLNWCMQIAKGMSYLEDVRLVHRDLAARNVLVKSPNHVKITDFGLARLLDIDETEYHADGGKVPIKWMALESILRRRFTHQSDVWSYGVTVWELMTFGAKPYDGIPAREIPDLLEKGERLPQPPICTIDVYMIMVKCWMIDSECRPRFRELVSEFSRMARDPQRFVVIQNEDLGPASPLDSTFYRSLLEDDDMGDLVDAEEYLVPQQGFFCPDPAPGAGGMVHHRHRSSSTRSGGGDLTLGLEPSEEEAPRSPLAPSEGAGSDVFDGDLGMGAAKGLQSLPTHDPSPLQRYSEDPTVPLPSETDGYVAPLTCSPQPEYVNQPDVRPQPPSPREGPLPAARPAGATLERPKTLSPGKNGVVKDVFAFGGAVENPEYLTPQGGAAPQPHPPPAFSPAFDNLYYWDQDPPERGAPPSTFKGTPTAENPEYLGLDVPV

**Q.** Which inhibition at 1 µM does the source give for CN(C(=O)CN1CCOCC1)c1ccc2sc3c(-c4cccc5c(=O)cc(N6CC7CCC(C6)O7)oc45)cccc3c2c1 [NU5455] here?
**A.** The inhibition at 1 µM was 5.6%.
